From article PMC5472792, “Bub1 positions Mad1 close to KNL1 MELT repeats to promote checkpoint signalling” (Nature Communications, 2017)
Square brackets hold non-standard residues; d marks the D form. Peptide text beside a SMILES is read from it. * marks the point of attachment. Biotin = O=C1N[C@H]2[C@H](CS[C@H]2CCCCC(=O)*)N1; pT = C[C@@H](OP(=O)(O)O)[C@H](N)C(=O)O; Nle = CCCC[C@H](N)C(=O)O

Target: T1, Mad1 597–718 (Homo sapiens, UniProt Q9Y6D9)
T1 construct: His (N); Strep (N); made in house; host or cells: E. coli BL21(DE3)
T1 sequence (Q9Y6D9 597-718): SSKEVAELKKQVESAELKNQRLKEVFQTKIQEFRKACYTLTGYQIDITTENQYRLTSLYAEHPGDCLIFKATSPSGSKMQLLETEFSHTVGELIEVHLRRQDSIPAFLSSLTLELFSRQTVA
Experiment: SPR, binding of CD1 peptides to Mad1 597–718 (steady-state affinity)
Conditions: ratio of Kd, SPR, Mad1 597–718
Excerpt: To further investigate a possible direct interaction between Mad1 and CD1, we used surface plasmon resonance technology. […] To achieve a more efficient synthesis of CD1 peptides and in particularly of the phosphorylated peptides we used norleucine (Nle) instead of methionine (Met) but we cannot exclude that Mad1 will have a different affinity for peptides containing methionine. […] Given that Ser459 and Thr461 phosphorylation was critical for Bub1 functionality in vivo we tested if they affected Mad1 597–718 binding. […] As the Mad1 RLK motif is required for binding Bub1 in budding yeast in vivo[39], we tested whether this motif was required for direct binding to CD1 phosphorylated on Thr461. […] We furthermore analysed the binding of Mad1 597–718 to CD1 peptides harboring the Ile471Asp and […] (residues 474–476) mutations with Thr461 being phosphorylated.
Figure 4 Direct binding of Mad1 to CD1 peptide. (a) SPR steady-state responses for control, WT, pS459, pT461, pS459/pT461, I471D, MFQ/RKK and control Bub1 CD1 peptides to purified Mad1 597–718 protein. The biotinylated peptides were captured on a streptavidin-coated CM5 chip and increasing concentrations of Mad1 were subsequently added for binding assessment. Empty symbols represent experimental data points from two technical replicates using the same chip. An additional independent experiment with two replicates has been performed giving in all cases consistent results. The equilibrium dissociation constants, KD, were calculated using a steady-state affinity model and the lines represent the best fit to the model. […] (b) Similar to a, SPR steady-state responses for pT461 peptide with purified Mad1 597–718 or Mad1 597–718 RLK/AAA or the Mad1 485–718/Mad2 complex. (c) Sequence and summary of the affinity of CD1 peptides for Mad1 597–718 as determined by SPR.
Bub1 peptides were purchased from Biosyntan Gmbh (Germany). The purity obtained in the synthesis was 95–98% as determined by high-performance liquid chromatography (HPLC) and the identity of the peptides was confirmed by mass spectrometry. SPR experiments were performed on a Biacore T200 (GE Healthcare) at 25 °C. Streptavidin (ThermoFisher Scientific) at 0.05 mg ml^−1 in 10 mM sodium acetate, pH 4.5, was directly immobilized on a CM5 sensor chip (GE Healthcare) by standard amine coupling chemistry with N-hydroxysuccinimide and N-ethly-N′-(3-dimethlyaminopropyl)carbodiimide up to an immobilization level of approximately 2000 RU. Unreacted sites were quenched with ethanolamine HCl. Subsequently, N-terminal biotinylated Bub1 peptides (at 10 nM in HBS-EP+ buffer and flow rate 5 μl min^−1) were captured at ∼50 RU, respectively, in channels 2, 3 and 4 of the streptavidin coated chip, leaving channel 1 free for reference. An identical approach was used to prepare a second CM5 chip with the negative controls. In this case, a N-terminal biotinylated 5A mutant, a non-related phosphorylated peptide and the Bub1 pT461 peptide were captured, respectively, in channels 2, 3 and 4. HBS-EP+ (10 mM Hepes, pH 7.4, 150 mM NaCl, 3 mM EDTA, 0.05% (v/v) Surfactant P20) was used as running buffer for both streptavidin immobilization and peptide capture. […] Sensorgrams were analysed after double referencing. […]

stronger binding to Mad1 than unphosphorylated CD1 peptide: 10 fold
Structure (SMILES): CCCC[C@H](NC(=O)[C@H](CC(N)=O)NC(=O)[C@H](CCCC)NC(=O)[C@@H](NC(=O)[C@H](Cc1ccccc1)NC(=O)CNC(=O)[C@H](CC(C)C)NC(=O)[C@H](C)NC(=O)[C@H](CCC(=O)O)NC(=O)[C@H](CCCCN)NC(=O)[C@@H](NC(=O)[C@H](Cc1c[nH]cn1)NC(=O)[C@@H](NC(=O)[C@@H](NC(=O)[C@@H]1CCCN1C(=O)[C@H](CO)NC(=O)[C@@H]1CCCN1C(=O)[C@H](CCC(N)=O)NC(=O)[C@@H](NC(=O)[C@H](CCCCN)NC(=O)[C@H](CO)NC(=O)[C@@H]1CCCN1C(=O)[C@@H](NC(=O)[C@H](C)NC(=O)[C@H](CCC(N)=O)NC(=O)[C@@H](NC(=O)CCCC[C@@H]1SC[C@@H]2NC(=O)N[C@@H]21)C(C)C)[C@@H](C)O)C(C)C)[C@@H](C)OP(=O)(O)O)C(C)C)[C@@H](C)O)[C@@H](C)CC)C(=O)N[C@@H](Cc1ccccc1)C(=O)N[C@@H](CCC(N)=O)C(=O)N[C@@H](C)C(=O)N1CCC[C@H]1C(=O)N[C@H](C(=O)N[C@@H](CC(C)C)C(=O)N[C@@H](Cc1c[nH]c2ccccc12)C(=O)O)[C@@H](C)O [CD1 pT461] (Biotin-VQATPSKVQPSP[pT]VHTKEALGFI[Nle]N[Nle]FQAPTLW-OH; C-terminus assumed)
